Literature values as cited in patent publication US20110046396A1, “POLYMORPHIC FORMS OF FLUVASTATIN SODIUM AND PROCESS FOR PREPARING THE SAME” (JUBILANT ORGANOSYS LIMITED, priority 2005, published 2011).

Details: compared with Form A or the amorphous form of Fluvastatin sodium; described in U.S. Pat. No. 6,124,340

CC(C)n1c(/C=C/[C@H](O)C[C@H](O)CC(=O)[O-])c(-c2ccc(F)cc2)c2ccccc21.[Na+] (racemic) [Form B, (±)-7-(3-(4-fluorophenyl)-1-(1-methylethyl)-1H-indol-2-yl)-3,5-dihydroxy-6-heptenoic acid monosodium salt]
hygroscopicity: less hygroscopic than Form A or the amorphous form
